Paper PMC11111408, “Concurrent inhibition of oncogenic and wild-type RAS-GTP for cancer therapy” (Nature, 2024)
“And” between values parts separate entries of the source, which are not always exact repeats. Equal values may be shown once.

Legend:
[1] = tested on: NCI-H358 and MIA PaCa-2 cells expressing RTK constructs; test: pERK (MSD) in NCI-H358 and MIA PaCa-2 cells expressing exogenous RTK or RTK fusion constructs; assay type: cell-based, human
[2] = biological target: KRAS WT (Homo sapiens, UniProt P01116+P62937); test: Biochemical RAS–RAF (BRAF RBD) disruption, TR-FRET; set-up: made in house; host or cells: BL21(DE3) Escherichia coli
Excerpt: (§1) Time-resolved fluorescence resonance energy transfer (TR-FRET) was used as previously described to assess disruption of the interactions between wild-type RAS or the mutant oncogenic RAS proteins and the RAS-binding domain of BRAF, and to assess the induction of interactions between the RAS proteins and CYPA[12].

[3] = biological target: KRAS^G12D (Homo sapiens, UniProt P01116+P62937, G12D); test: Biochemical RAS–RAF (BRAF RBD) disruption, TR-FRET; set-up: made in house; host or cells: BL21(DE3) Escherichia coli; conditions: (95% CI)
Excerpt: as §1

[4] = biological target: KRAS^G12R (Homo sapiens, UniProt P01116+P62937, G12R); test: Biochemical RAS–RAF (BRAF RBD) disruption, TR-FRET; set-up: made in house; host or cells: BL21(DE3) Escherichia coli; conditions: (95% CI)
Excerpt: as §1

Q: `CCn1c(-c2cc(N3CCN(C4CC4)CC3)cnc2[C@H](C)OC)c2c3cc(ccc31)-c1csc(n1)C[C@H](NC(=O)[C@H]1[C@@H]3COC[C@@H]31)C(=O)N1CCC[C@H](N1)C(=O)OCC(C)(C)C2` [RMC-7977] was tested. Which “pERK inhibition in H358 RTK overexpression cells” value ([1]; GFP, RMC-7977 0.0152 nM) did it give?
A: 88.72 and 97.32

Q: And the “pERK in NCI-H358 RTK overexpression cells treated with RMC-7977” value ([1]; GFP, RMC-7977 0.0457 nM)?
A: 126.84 and 117.32

Q: What about the “pERK inhibition in H358 RTK overexpression cells” value ([1]; GFP, RMC-7977 0.0457 nM) of the same compound?
A: 102.39 and 94.00

Q: What about the “pERK in NCI-H358 RTK overexpression cells treated with RMC-7977” value ([1]; GFP, RMC-7977 0.41 nM) of the same compound?
A: 51.59 and 78.61

Q: And the “pERK inhibition in H358 RTK overexpression cells” value ([1]; GFP, RMC-7977 0.41 nM)?
A: 66.43 and 65.41

Q: And the “pERK inhibition in MiaPaCa2 RTK fusion overexpression cells treated with RMC-7977” value (“pERK inhibition … with RMC-7977” for short) ([1]; GFP, RMC-7977 0.412 nM)?
A: 27.42 and 30.00 and 31.02 and 30.72

Q: And the “pERK inhibition … with RMC-7977” value ([1]; GFP, RMC-7977 1.235 nM)?
A: 9.02 and 12.77 and 12.06 and 11.06

Q: What about the “pERK in NCI-H358 RTK overexpression cells treated with RMC-7977” value ([1]; GFP, RMC-7977 11.11 nM) of the same compound?
A: 4.80

Q: And the “pERK inhibition in H358 RTK overexpression cells” value ([1]; GFP, RMC-7977 11.11 nM)?
A: 7.16 and 4.70

Q: What about the “pERK inhibition … with RMC-7977” value ([1]; GFP, RMC-7977 11.111 nM) of the same compound?
A: 3.33 and 3.53 and 3.95 and 3.59

Q: What about the “pERK in NCI-H358 RTK overexpression cells treated with RMC-7977” value ([1]; GFP, RMC-7977 33.33 nM) of the same compound?
A: 2.56 and 2.82

Q: What about the “pERK inhibition in H358 RTK overexpression cells” value ([1]; GFP, RMC-7977 33.33 nM) of the same compound?
A: 3.17 and 2.48

Q: And the “pERK inhibition … with RMC-7977” value ([1]; GFP, RMC-7977 33.333 nM)?
A: 3.43 and 3.24 and 2.97 and 2.93

Q: What about the “pERK in NCI-H358 RTK overexpression cells treated with RMC-7977” value ([1]; GFP, RMC-7977 100.00 nM) of the same compound?
A: 2.07 and 1.93

Q: What about the “pERK inhibition in H358 RTK overexpression cells” value ([1]; GFP, RMC-7977 100.00 nM) of the same compound?
A: 2.60 and 2.58

Q: And the “pERK inhibition … with RMC-7977” value ([1]; GFP, RMC-7977 100.000 nM)?
A: 3.01 and 2.87 and 2.65 and 2.84

Q: What about the “pERK in NCI-H358 RTK overexpression cells treated with RMC-7977” value ([1]; GFP, RMC-7977 300.00 nM) of the same compound?
A: 2.17 and 2.42

Q: And the “pERK inhibition in H358 RTK overexpression cells” value ([1]; GFP, RMC-7977 300.00 nM)?
A: 2.46 and 2.59

Q: What about the “pERK in NCI-H358 RTK overexpression cells treated with RMC-7977” value ([1]; HER2, RMC-7977 0.0152 nM) of the same compound?
A: 111.00 and 102.34

Q: And the “pERK inhibition in H358 RTK overexpression cells” value ([1]; HER2, RMC-7977 0.0152 nM)?
A: 107.19 and 89.20

Q: What about the “pERK in NCI-H358 RTK overexpression cells treated with RMC-7977” value ([1]; HER2, RMC-7977 0.0457 nM) of the same compound?
A: 106.57 and 84.47

Q: What about the “pERK inhibition in H358 RTK overexpression cells” value ([1]; HER2, RMC-7977 0.0457 nM) of the same compound?
A: 86.86 and 85.86

Q: And the “pERK in NCI-H358 RTK overexpression cells treated with RMC-7977” value ([1]; HER2, RMC-7977 0.41 nM)?
A: 72.44 and 63.75

Q: And the “pERK inhibition in H358 RTK overexpression cells” value ([1]; HER2, RMC-7977 0.41 nM)?
A: 63.34 and 59.01

Q: And the “pERK in NCI-H358 RTK overexpression cells treated with RMC-7977” value ([1]; HER2, RMC-7977 11.11 nM)?
A: 2.66

Q: And the “pERK inhibition in H358 RTK overexpression cells” value ([1]; HER2, RMC-7977 11.11 nM)?
A: 6.01 and 6.18

Q: And the “pERK in NCI-H358 RTK overexpression cells treated with RMC-7977” value ([1]; HER2, RMC-7977 33.33 nM)?
A: 1.70 and 1.64

Q: What about the “pERK inhibition in H358 RTK overexpression cells” value ([1]; HER2, RMC-7977 33.33 nM) of the same compound?
A: 5.40 and 5.32

Q: And the “pERK in NCI-H358 RTK overexpression cells treated with RMC-7977” value ([1]; HER2, RMC-7977 100.00 nM)?
A: 1.42 and 1.69

Q: What about the “pERK in NCI-H358 RTK overexpression cells treated with RMC-7977” value ([1]; HER2, RMC-7977 300.00 nM) of the same compound?
A: 2.02 and 1.78

Q: And the “pERK in NCI-H358 RTK overexpression cells treated with RMC-7977” value ([1]; RET M918T, RMC-7977 0.0152 nM)?
A: 93.23 and 141.77

Q: And the “pERK inhibition in H358 RTK overexpression cells” value ([1]; RET M918T, RMC-7977 0.0152 nM)?
A: 96.21 and 105.26

Q: What about the “pERK in NCI-H358 RTK overexpression cells treated with RMC-7977” value ([1]; RET M918T, RMC-7977 0.0457 nM) of the same compound?
A: 91.92 and 151.65

Q: And the “pERK inhibition in H358 RTK overexpression cells” value ([1]; RET M918T, RMC-7977 0.0457 nM)?
A: 91.15 and 96.00

Q: What about the “pERK in NCI-H358 RTK overexpression cells treated with RMC-7977” value ([1]; RET M918T, RMC-7977 0.41 nM) of the same compound?
A: 60.67 and 71.79

Q: What about the “pERK inhibition in H358 RTK overexpression cells” value ([1]; RET M918T, RMC-7977 0.41 nM) of the same compound?
A: 61.29 and 64.34

Q: What about the “pERK inhibition in H358 RTK overexpression cells” value ([1]; RET M918T, RMC-7977 3.70 nM) of the same compound?
A: 20.58 and 17.35

Q: And the “pERK in NCI-H358 RTK overexpression cells treated with RMC-7977” value ([1]; RET M918T, RMC-7977 11.11 nM)?
A: 4.81 and 4.27

Q: What about the “pERK inhibition in H358 RTK overexpression cells” value ([1]; RET M918T, RMC-7977 11.11 nM) of the same compound?
A: 7.08 and 6.42

Q: And the “pERK in NCI-H358 RTK overexpression cells treated with RMC-7977” value ([1]; RET M918T, RMC-7977 33.33 nM)?
A: 2.17 and 2.02

Q: And the “pERK inhibition in H358 RTK overexpression cells” value ([1]; RET M918T, RMC-7977 33.33 nM)?
A: 3.13 and 3.07

Q: And the “pERK in NCI-H358 RTK overexpression cells treated with RMC-7977” value ([1]; RET M918T, RMC-7977 100.00 nM)?
A: 1.44 and 1.22

Q: And the “pERK inhibition in H358 RTK overexpression cells” value ([1]; RET M918T, RMC-7977 100.00 nM)?
A: 1.99 and 2.21

Q: And the “pERK in NCI-H358 RTK overexpression cells treated with RMC-7977” value ([1]; RET M918T, RMC-7977 300.00 nM)?
A: 1.32

Q: What about the “pERK inhibition in H358 RTK overexpression cells” value ([1]; RET M918T, RMC-7977 300.00 nM) of the same compound?
A: 2.03 and 1.88

Q: And the EC50 [2]?
A: 0.077 µM

Q: And the EC50 [3]?
A: 0.176 µM

Q: And the EC50 [4]?
A: 0.123 µM
